Measurements published in publication PMC9464622, “The collectin SP-A and its trimeric recombinant fragment protect alveolar epithelial cells from the cytotoxic and proinflammatory effects of human cathelicidin in vitro” (Frontiers in Immunology, 2022).

Key:
human SP-A = molecular target: T1, human SP-A (Homo sapiens, UniProt Q8IWL1+Q8IWL2); assay: Binding of LL-37 to SP-A by intrinsic tryptophan fluorescence titration
T1 construct: Human SP-A was isolated from bronchoalveolar lavage fluid of patients with alveolar proteinosis; from tissue; host or cells: bronchoalveolar lavage fluid of patients with alveolar proteinosis
Method: (§1) Fluorescence measurements were carried out in 5 x 5 quartz cuvettes using an SLM-Aminco AB-2 spectrofluorimeter equipped with a thermostated cuvette holder (± 0.1°C; Spectronic, Waltham, MA, USA). The slit widths were 4 nm for the excitation and emission beams. The tryptophan fluorescence emission spectrum of SP-A and rfhSP-A was recorded from 305 to 400 nm on excitation at 295 nm at 25°C in 5 mM Tris HCl buffer (pH 7.4), with or without 150 mM NaCl. Subsequently, the titration experiment was started by adding increasing amounts of LL-37 to the protein solution in the cuvette. The fluorescence intensity readings were corrected for the dilution caused by LL-37 addition.
(§2) The change in the fluorescence of SP-A (or rfhSP-A) at the emission wavelength maximum was monitored as a function of LL-37 concentration, and the titration data were analyzed by nonlinear least squares fitting to the Hill equation, as previously reported ([24], [35], [36]):
(§3) (1) ΔF/ΔFmax=[L]^nH/([L]^nH+KD)
(§4) where ΔF is the change in fluorescence intensity at 337 nm relative to the intensity of free SP-A (for free rfhSP-A, the emission wavelength maximum was 342 nm); ΔFmax is the change in fluorescence intensity at saturating LL-37 concentrations; KD is the apparent equilibrium dissociation constant; [L] is the molar concentration of free LL-37; and nH is the Hill coefficient.

[1] = molecular target: T2, rfhSP-A (recombinant trimeric fragment of human SP-A) (Homo sapiens, UniProt Q8IWL2); assay: Binding of LL-37 to rfhSP-A by intrinsic tryptophan fluorescence titration
T2 construct: including the globular carbohydrate recognition domain (CRD), neck, and 8 x Gly-Xaa-Yaa repeats of the collagen stalk; His6 (N, cleaved yes); NT* solubility tag (spider silk) with coxsackievirus 3C protease site (N, cleaved yes); made in house; host or cells: Escherichia coli BL21 (DE3)
Method: as §1, §2, §3, §4

A549 cells [2] = type: cell-based, human; details: LL-37 2.5 µM, SP-A 0.15 µM, rfhSP-A 0.88 µM, 30 min 37°C; complexes vs LL-37 alone p < 0.001
Method: (§5) Human cell lines of alveolar basal epithelium A549 (ATTC® CCL-185TM) and monocytes U937 (ATTC® CRL-1593.2TM) were incubated in RPMI 1640 supplemented with 10% (v/v) heat-inactivated fetal bovine serum (FBS), antibiotics (100 U/ml penicillin and 100 μg/ml streptomycin), and 2 mM L-glutamine (BioWhittacker).
(§6) Incorporation of Sytox Green in A549 cells was analyzed by confocal microscopy and flow cytometry analysis.
For confocal microscopy analysis, cells were seeded to a density of 30,000 cells per well in a 24-well tissue culture plate for 18 h in RPMI 1640 tissue culture medium supplemented with 100 U/ml penicillin, 100 μg/ml streptomycin, 2 mM L-glutamine, and with 5% FBS. The following day, Sytox Green (1 µM, final concentration) was added to the wells 10 minutes before the addition of 2.5 µM (11.25 µg/ml) LL-37 and/or 0.15 µM (100 µg/ml) SP-A or 0.88 µM (50 µg/ml) rfhSP-A for an additional 30 minutes. At the end of the incubation, fluorescence and differential interference contrast micrographs were taken under an Olympus FV1200 confocal system. Quantification of permeabilized cells (Sytox Green+) per cell number was performed using Image J software on each of 12 micrographs per treatment and experiment.

A549 cells [3] = type: cell-based, human; details: LL-37 2.5 µM, SP-A 0.15 µM, rfhSP-A 0.88 µM, 15-60 min 37°C; complexes vs LL-37 alone p < 0.001
Method: as §5, §6
(§7) For flow cytometry analysis, A549 cells were grown in RPMI 1640 medium supplemented with antibiotics, 2 mM L-glutamine, and 10% FBS. […] A-438079 stock was resuspended in DMSO to a final concentration of 30 mM and aliquots were stored at 4°C. Cell fluorescence was analyzed after 15, 30 and 60 minutes in a Becton-Dickinson FACS Calibur cytometer, using Cell Quest software.

A549 cells [4] = assay: Propidium iodide uptake, A549; type: cell-based, human; details: LL-37 2.5 µM, SP-A 0.15 µM, rfhSP-A 0.88 µM, 15-60 min, 37°C, flow cytometry
Method: as §5
(§8) The incorporation of PI in A549 and U937 cell lines was analyzed by flow cytometry. Cells were cultured 18 h in RPMI 1640 medium supplemented with antibiotics, 2 mM L-glutamine, and 10% FBS. Then, cells were harvested and incubated in PBS with 10 µg/ml PI in the presence or absence of 2.5 µM LL-37, 0.15 µM SP-A or 0.88 µM rfhSP-A, and combinations thereof. A549 were incubated at 500,000 cells/ml density and U937 at 1,000,000 cells/ml. PI incorporation was measured after 15, 30, 45 and 60 minutes by flow cytometry. In some experiments, cells were pre-treated with 1 or 10 µM A-438079 or vehicle (DMSO).

U937 cells = assay: Propidium iodide uptake, U937; type: cell-based, human; details: LL-37 2.5 µM, SP-A 0.15 µM, rfhSP-A 0.88 µM, 15-60 min, 37°C, flow cytometry
Method: as §5, §8

[5] = system: P2X7 channels, A549 pneumocytes; type: cell-based, human; details: A-438079 10 µM, 15 min pre-treatment; LL-37 2.5 µM, SP-A 0.15 µM, rfhSP-A 0.88 µM, 1 hour
Method: as §7, §8

[6] = system: P2X7 channels, U937 monocytes; type: cell-based, human; details: A-438079 10 µM, 15 min pre-treatment; LL-37 2.5 µM, SP-A 0.15 µM, rfhSP-A 0.88 µM, 1 hour
Method: as §7, §8

T1 sequence (Q8IWL2 21-248): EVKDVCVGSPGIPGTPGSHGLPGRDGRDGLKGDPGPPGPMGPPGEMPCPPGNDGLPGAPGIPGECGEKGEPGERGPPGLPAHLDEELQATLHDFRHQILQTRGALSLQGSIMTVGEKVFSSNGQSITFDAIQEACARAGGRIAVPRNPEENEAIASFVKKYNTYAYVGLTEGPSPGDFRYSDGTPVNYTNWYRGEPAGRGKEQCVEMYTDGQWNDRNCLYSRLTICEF
T1 sequence (Q8IWL1 21-248): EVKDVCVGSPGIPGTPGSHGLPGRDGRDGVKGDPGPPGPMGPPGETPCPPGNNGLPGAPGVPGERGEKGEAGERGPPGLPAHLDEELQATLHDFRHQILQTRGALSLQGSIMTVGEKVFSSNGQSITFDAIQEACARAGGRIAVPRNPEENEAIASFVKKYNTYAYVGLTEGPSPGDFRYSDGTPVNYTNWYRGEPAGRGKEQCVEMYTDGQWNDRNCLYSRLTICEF
T2 sequence (Q8IWL2 77-248 limits assumed): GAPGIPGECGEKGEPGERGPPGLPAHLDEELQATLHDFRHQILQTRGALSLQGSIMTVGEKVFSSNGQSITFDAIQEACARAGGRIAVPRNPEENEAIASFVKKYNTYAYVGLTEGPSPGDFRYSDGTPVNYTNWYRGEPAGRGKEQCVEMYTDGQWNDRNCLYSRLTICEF

Q: `CC[C@H](C)[C@H](NC(=O)[C@H](CCCCN)NC(=O)[C@H](CCC(=O)O)NC(=O)[C@H](CCCCN)NC(=O)[C@H](CO)NC(=O)[C@H](CCCCN)NC(=O)[C@H](CCCNC(=N)N)NC(=O)[C@H](Cc1ccccc1)NC(=O)[C@H](Cc1ccccc1)NC(=O)[C@H](CC(=O)O)NC(=O)CNC(=O)[C@H](CC(C)C)NC(=O)[C@@H](N)CC(C)C)C(=O)NCC(=O)N[C@@H](CCCCN)C(=O)N[C@@H](CCC(=O)O)C(=O)N[C@@H](Cc1ccccc1)C(=O)N[C@@H](CCCCN)C(=O)N[C@@H](CCCNC(=N)N)C(=O)N[C@H](C(=O)N[C@H](C(=O)N[C@@H](CCC(N)=O)C(=O)N[C@@H](CCCNC(=N)N)C(=O)N[C@H](C(=O)N[C@@H](CCCCN)C(=O)N[C@@H](CC(=O)O)C(=O)N[C@@H](Cc1ccccc1)C(=O)N[C@@H](CC(C)C)C(=O)N[C@@H](CCCNC(=N)N)C(=O)N[C@@H](CC(N)=O)C(=O)N[C@@H](CC(C)C)C(=O)N[C@H](C(=O)N1CCC[C@H]1C(=O)N[C@@H](CCCNC(=N)N)C(=O)N[C@H](C(=O)N[C@@H](CCC(=O)O)C(=O)N[C@@H](CO)C(=O)O)[C@@H](C)O)C(C)C)[C@@H](C)CC)C(C)C)[C@@H](C)CC` [LL-37] was tested. Which Kd (human SP-A) did it give?
A: 450 ± 10 pM

Q: And the Kd [1]?
A: 1200 ± 700 pM

Q: And the “Sytox Green incorporation, A549, confocal” value (A549 cells [2])?
A: induced Sytox Green incorporation in human pneumocytes

Q: What about the “Sytox Green incorporation, A549, flow cytometry” value (A549 cells [3]) of the same molecule?
A: induced Sytox Green incorporation in human pneumocytes

Q: What about the “PI uptake, A549 pneumocytes” value (A549 cells [4]) of the same molecule?
A: induced significant PI incorporation into human cells as a function of time

Q: And the “PI uptake, U937 monocytes” value (U937 cells)?
A: induced significant PI incorporation into human cells as a function of time

Q: And the “LL-37-induced dye uptake with / without P2X7 inhibitor, A549” value [5]?
A: partially mediated by activation of P2X7 channels

Q: And the “LL-37-induced dye uptake with / without P2X7 inhibitor, U937” value [6]?
A: partially mediated by activation of P2X7 channels
